How the values were obtained:
[1] = Encapsulation of steroids into PLGA nanoparticles (steroid content by HPLC); assay type: physicochemical; settings: for Steroid/nanoparticle (wt %): PLGA nanoparticles
Protocol: Each mixture was centrifuged at 12,000 rpm for 5 min and the supernatant was discarded to obtain precipitates in the form of zinc-steroids or iron-steroids. […] To each of the resultant solutions, an aqueous solution of zinc acetate was added and the mixture was allowed to stand for 2 hours at room temperature. […] The mixture was then centrifuged at 20,000 G for 20 min. Following the removal of the supernatant, the residue was resuspended in water and the suspension was again centrifuged to wash the nanoparticles. […] Similarly, the amount of water-insoluble steroid was determined for the nanoparticles prepared by different method without metal ions.

[2] = Formation of water-insoluble precipitates of drugs with metal ions (turbidity observed); assay type: physicochemical; settings: 20 mM drug in 0.2M Tris-HCl pH 7.8 + equal volume 100 mM metal ion
Protocol: Compounds shown in Table 1 below were used to as the low-molecular weight, water-soluble and non-peptide drug having phosphate groups. […] The solution was then added to equal volume of 100 mM aqueous solutions of different metal ions. The turbidity of each of the resulting mixtures was observed.

[3] = as above; assay type: physicochemical; settings: for Formation of precipitates with metal ions: 3N HCl, 20 mM drug in 0.2M Tris-HCl pH 7.8
[4] = system: inflammatory sites; test: Accumulation of nanoparticles in inflammatory sites (carrageenin leg edema, fluorescence microscopy); assay type: in vivo, male Lewis rats; settings: single tail vein injection 4 hours after carrageenin; 2 hours after administration
Protocol: Inflammation was induced by injecting 100 μl physiological saline containing 1% carrageenin in the left hind paw of male Lewis rats. After 4 hours, single dosages of rhodamine-encapsulating nanoparticles of two different sizes (200 nm and 500 nm) were injected into a tail vein. 2 hours after administration, the resultant leg edema was cut and cryostat sections were prepared.
As controls, one group was administered with physiological saline and another group with rhodamine alone.

C[C@H]1C[C@H]2[C@@H]3CCC4=CC(=O)C=C[C@]4(C)[C@@]3(F)[C@@H](O)C[C@]2(C)[C@@]1(O)C(=O)COP(=O)(O)O [BP-Zn, betamethasone phosphate]
Steroid/nanoparticle (wt %) [1]: 2.03 wt %

C[C@H]1C[C@H]2[C@@H]3CCC4=CC(=O)C=C[C@]4(C)[C@@]3(F)[C@@H](O)C[C@]2(C)[C@@]1(O)C(=O)COP(=O)(O)O [betamethasone phosphate]
Formation of precipitates with metal ions ([2]; CuCl2): +++
Formation of precipitates with metal ions ([2]; FeCl2): +++
Formation of precipitates with metal ions ([2]; FeCl3): +++
Formation of precipitates with metal ions ([2]; MgCl2): −
Formation of precipitates with metal ions ([2]; NiCl2): −
Formation of precipitates with metal ions ([2]; Zn(CH3COO)2): +++
Formation of precipitates with metal ions ([2]; ZnCl2): +++
dispersion state of the nanoparticles ([1]; 500 μl or less of acetone): formed aggregates
dispersion state of the nanoparticles ([1]; 700 μl acetone): remained stably dispersed
Steroid/nanoparticle (wt %) ([1]; zinc precipitate of 5 mg, acetone 700 μl): 7.34 wt %
Steroid/nanoparticle (wt %) ([1]; zinc precipitate of 5 mg, acetone 900 μl): 4.28 wt %
Steroid/nanoparticle (wt %) ([1]; zinc precipitate of 5 mg, acetone 1100 μl): 3.46 wt %
Steroid/nanoparticle (wt %) ([1]; zinc precipitate of 5 mg, acetone 1300 μl): 2.71 wt %
Steroid/nanoparticle (wt %) ([1]; zinc precipitate of 5 mg, acetone 1500 μl): 1.93 wt %
Formation of precipitates with metal ions [3]: −

rhodamine
accumulation of the nanoparticles in the inflammatory sites (fluorescence in tissue sections) [4]: No significant accumulation

C[C@@H]1C[C@H]2[C@@H]3CCC4=CC(=O)C=C[C@]4(C)[C@@]3(F)[C@@H](O)C[C@]2(C)[C@@]1(O)C(=O)COP(=O)(O)O [DP-Na, dexamethasone phosphate]
Steroid/nanoparticle (wt %) [1]: 0 wt %

C[C@@H]1C[C@H]2[C@@H]3CCC4=CC(=O)C=C[C@]4(C)[C@@]3(F)[C@@H](O)C[C@]2(C)[C@@]1(O)C(=O)COP(=O)(O)O [Dexamethasone phosphate, dexamethasone phosphate]
Formation of precipitates with metal ions ([2]; CuCl2): +++
Formation of precipitates with metal ions ([2]; FeCl2): +++
Formation of precipitates with metal ions ([2]; FeCl3): +++
Formation of precipitates with metal ions ([2]; MgCl2): −
Formation of precipitates with metal ions ([2]; NiCl2): +
Formation of precipitates with metal ions ([2]; Zn(CH3COO)2): +++
Formation of precipitates with metal ions ([2]; ZnCl2): +++
Formation of precipitates with metal ions [3]: −

hydrocortisone phosphate [HP-Zn]
Steroid/nanoparticle (wt %) [1]: 1.05 wt %

hydrocortisone phosphate [HP-Na]
Steroid/nanoparticle (wt %) [1]: 0 wt %

CC(=O)OCC(=O)[C@@]1(O)[C@@H](C)C[C@H]2[C@@H]3CCC4=CC(=O)C=C[C@]4(C)[C@@]3(F)[C@@H](O)C[C@@]21C [betamethasone acetate]
Steroid/nanoparticle (wt %) [1]: 0.15 wt %

CCC(=O)OCC(=O)[C@@]1(OC(=O)CC)[C@@H](C)C[C@H]2[C@@H]3CCC4=CC(=O)C=C[C@]4(C)[C@@]3(F)[C@@H](O)C[C@@]21C [BDP, betamethasone dipropionate]
Steroid/nanoparticle (wt %) [1]: 0.47 wt %

C[C@H]1C[C@H]2[C@@H]3CCC4=CC(=O)C=C[C@]4(C)[C@@]3(F)[C@@H](O)C[C@]2(C)[C@@]1(O)C(=O)COP(=O)(O)O [BP-Na, betamethasone phosphate]
Steroid/nanoparticle (wt %) [1]: 0 wt %

C[C@H]1C[C@H]2[C@@H]3CCC4=CC(=O)C=C[C@]4(C)[C@@]3(F)[C@@H](O)C[C@]2(C)[C@@]1(O)C(=O)COP(=O)(O)O [BP-Fe, betamethasone phosphate]
Steroid/nanoparticle (wt %) [1]: 1.15 wt %

Cc1cc2nc3c(=O)[nH]c(=O)nc-3n(C[C@H](O)[C@H](O)[C@H](O)COP(=O)(O)O)c2cc1C [riboflavin phosphate]
Formation of precipitates with metal ions ([2]; CuCl2): +++
Formation of precipitates with metal ions ([2]; FeCl2): +++
Formation of precipitates with metal ions ([2]; FeCl3): +++
Formation of precipitates with metal ions ([2]; MgCl2): −
Formation of precipitates with metal ions ([2]; NiCl2): −
Formation of precipitates with metal ions ([2]; Zn(CH3COO)2): +++
Formation of precipitates with metal ions ([2]; ZnCl2): +++
Formation of precipitates with metal ions [3]: −
molar ratio with respect to zinc ion at which precipitate formation was most significant ([3]; zinc ion, molar ratio varied): approximately 1

Naphthyl-phosphate
Formation of precipitates with metal ions ([2]; CuCl2): −
Formation of precipitates with metal ions ([2]; FeCl2): +++
Formation of precipitates with metal ions ([2]; FeCl3): +++
Formation of precipitates with metal ions ([2]; MgCl2): −
Formation of precipitates with metal ions ([2]; NiCl2): −
Formation of precipitates with metal ions ([2]; Zn(CH3COO)2): +++
Formation of precipitates with metal ions ([2]; ZnCl2): +++
Formation of precipitates with metal ions [3]: −

C[C@@H]1C[C@H]2[C@@H]3CCC4=CC(=O)C=C[C@]4(C)[C@@]3(F)[C@@H](O)C[C@]2(C)[C@@]1(O)C(=O)COP(=O)(O)O [DP-Zn, dexamethasone phosphate]
Steroid/nanoparticle (wt %) [1]: 1.15 wt %

Source: patent US20060233883A1, “Intravenous nanoparticles for targeting drug delivery and sustained drug release” (priority 2003, published 2006)
